Like-named read-outs stand apart in the source and are kept apart here.
Columns and labels:
[1] = Pharmacokinetic study in man (12 healthy subjects), racemate or one enantiomer alone; format: in vivo; settings: human, plasma; for half-life: read-out: T½ (converted)
Protocol: A pharmacokinetic study in man involving 12 healthy subjects was performed by administering the racemate or one of the two enantiomers alone.

3H-serotonin uptake = target: T1, 3H-serotonin uptake (Rattus norvegicus, UniProt P31652); assay: Serotonin uptake, rat hypothalamus P2 fraction (synaptosomes); format: biochemical
T1 construct: the hypothalamus was removed, weighed and homogenised on a Dounce; from tissue
Protocol: After homogenisation of brain tissue in a sucrose solution, the presynaptic terminals break away from the axon and close to form synaptosomes obtained by subcellular fractionation.
Male Sprague-Dawley (Janvier) rats weighing 180-200 g were used.
This homogenate was centrifuged for 10 min at 1,000 g (2,400 rpm-Hettich, Rotenta). […] The residue (called the P2 fraction) was recovered in sucrose at a concentration of 50 mg/ml.
Exactly 5 min after the start of incubation, the reaction was stopped by vacuum filtration on Whatman GF/F filters (predilution with 2.5 ml of chilled buffer then rinsing with 3 times 2.5 ml).
The IC50 were determined by transposing the percentages of inhibition onto a graph in relation to the log of the product concentration (6 concentrations in duplicate).

3H-paroxetine binding = target: T2, 3H-paroxetine binding (Rattus norvegicus, UniProt P31652); assay: Paroxetine binding, rat hypothalamus membranes
T2 construct: the hypothalamus was removed, weighed and homogenised on a Dounce; from tissue
Protocol: 2.1.3. Paroxetine Binding
Male Sprague-Dawley rats (Janvier) weighing 180-200 g were used. The hypothalami of several rats were collected and homogenised in 5 ml of chilled buffer (50 mM Tris-HCL, 120 mM NaCl, 5 mM KCl, pH 7.5) on a Dounce, and the homogenate was centrifuged at 30 000 g (27 000 rpm-Beckman. L5-50E, T40 rotor) for 10 min. The residue obtained was recovered in 5 ml of buffer and re-centrifuged under the same conditions. The new residue was recovered in the same buffer and finally re-homogenised on a Dounce at a tissue concentration of 10 mg/ml. The membrane suspension (100 μl) was incubated with 3H-paroxetine (NEN, France, 28.6 Ci/mmol) at a concentration (final) of 0.1 nM, at 20° C., in a final volume of 1 ml for 2 hr. After 2 hr incubation, the reaction was stopped by vacuum filtration on Whatman GF/F filters pre-treated in a 0.05% solution of polyethylenimine 30 min beforehand (prediluted with 4 ml of chilled buffer, then the tube was rinsed with 2 times 4 ml). Radioactivity was measured by liquid scintillation spectrometry (Packard, Tricarb 4640) using Emulsifier-Safe (Packard) as the scintillating agent.
Specific ^3H-paroxetine binding was defined as the difference between total binding and that remaining in the presence of 10 μM of fluoxetine.
The IC50 were determined by transposing the percentages of inhibition onto a graph in relation to the log of the concentration of the product (6 concentrations in duplicate).

primary rat hepatocytes = assay: Safe-Hit genomic test of predictive toxicology (Toxicity Index) on primary rat hepatocytes; format: cell-based; settings: 16 h
Text: After treatment of the primary rat hepatocytes in culture, the RNA was extracted in order to generate labelled complementary-DNA probes which were then hybridised on a membrane containing 682 alternatively-spliced fragments specific to cell stress. A Toxicity Index was obtained for each of the products by comparing the hybridisation profile of the treated cells with that of the untreated cells.
Safe-Hit allows molecules within a chemical series to be ranked according to a Toxic Index, determined after the following basic steps (systematically performed in duplicate for each product): • treatment of the cells lines with the various products at three different concentrations, deduced from a preliminary cytotoxicology test (MTT-assay): a reference concentration corresponding to 80% cell viability, a concentration 10-fold higher—when possible—and a concentration 10-fold lower, • preparation of total RNA and of the corresponding radio-labelled cDNA probes, • hybridisation of the cDNA probes: the Safe-Hit macroarray contains 682 independent clones, corresponding to alterations in gene splicing induced by overexpression of WTp53 (p53 is the most ubiquitous “mediator” of cell stress, chosen for the development of this methodology), • acquisition and determination of the Toxicity Index. 4.1.2. Cells
The cells used in the study (preliminary MTT-assay of cytotoxicity and the main test) are cryopreserved hepatocytes from Sprague-Dawley rats in primary culture (batches Hep184005 and Hep184006-Biopredic), cultured under standard conditions.
The cells are seeded and cultured for 16 hours with each product, at the three concentrations chosen on the basis of the preliminary MTT-assay; two controls (untreated cells in solvent alone) are added to the series.
The results of the two Safe-Hit analyses are then compared and combined to assess the potential toxicity of the various compounds tested. Two parameters that can be modified by the user are involved in the calculation of the Toxicity Index: • Background Threshold (BT) smoothes out weak signals, close to background noise and not attributable to significant gene expression. […] The value of this parameter is usually 2 or less than 2 in order to obtain relevant results. […]
Toxicity Indices (TI) were determined as described above. […] Two separate analyses were performed using two levels of differentiation (Induction Factor-IF) in relation to the untreated controls: • a factor of at least 1.7 in relation to the untreated controls. This factor of 1.7 times represents the weakest value that allows an index not to be obtained in relation to the two untreated controls. • a factor of at least 2 in relation to the untreated controls. This factor of 2 times allows the most robust signals to be taken into account. 4.3.1. Induction Factor of 1.7 in Relation to Untreated Control (Table 7)

[2] = in vivo
Text: In animals, the pharmacokinetics of each enantiomer were studied following administration of the racemate or of one single enantiomer.

3H-norepinephrine uptake [3] = target: T3, 3H-norepinephrine uptake (Rattus norvegicus, UniProt Q63380); assay: biochemical
Protocol: (§1) Norepinephrine Uptake by a Homogenate (P2) of Rat Hypothalamus.
(§2) Male Sprague-Dawley rats, from 200 to 300 g, were stunned and decapitated, and the hypothalami were rapidly removed. Two hypothalami are homogenised in 4 ml of sucrose 0.32 M on a Potter S by 16 complete passes back and forth at 800 rpm, then centrifuged for 10 min at 1,000 g to eliminate cell debris. The supernate is centrifuged for 20 min at 10,000 g and the P2 thus obtained is recovered in 4 ml of sucrose 0.32 M, and homogenised on a Dounce.
(§3) ^3H-(1)-NE: 13 Ci/mmol (Amersham) is used.
(§4) Uptake takes place in a phosphate buffer (containing 8 g of NaCl, 1.21 g of K2HPO4 and 0.34 g of KH2PO4 per liter) pre-oxygenated 30 min before use with a mixture of O2/CO2 (95%/5%).
(§5) In 5-ml plastic tubes placed in a water bath at 37° C., the following are introduced: • 100 μl of buffer or inhibitor, • 700 μl of buffer (containing 25 μM pargyline), • 100 μl of P2.
(§6) After temperature balance, the reaction begins by the addition of 100 μl of ^3H-NE, 50 nM final concentration.
(§7) Exactly 10 min later, the reaction is stopped by adding 2.5 ml of chilled buffer and filtering through GF/F filters. The tube is then rinsed once and the filter once with 2.5 ml of chilled buffer. The filter is then introduced into a Beckman mini-vial and, after adding 3 ml of Instagel (Packard) liquid scintillator, radioactivity is measured with a Tricarb Packard scintillation counter.
(§8) Non-specific uptake (NS) is measured as the presence of DMI 10^−5 M.
(§9) The percentage of inhibition is calculated using the formula:
(§10) The IC50 is determined graphically on the mean curve of percentage of inhibition (4 assays) in relation to the log of the concentration of inhibitor.

3H-norepinephrine uptake [4] = target: T3, 3H-norepinephrine uptake; settings: read-out: IC50 3H-Norepinephrine uptake; rat hypothalamus P2, 3H-NE 50 nM, 10 min, 37° C.
Protocol: as §1, §2, §3, §4, §5, §6, §7, §8, §9, §10

[5] = enantiomer administered alone (25 mg)
[6] = enantiomer assayed after F2207 (50 mg)

T3 sequence (Q63380 1-617): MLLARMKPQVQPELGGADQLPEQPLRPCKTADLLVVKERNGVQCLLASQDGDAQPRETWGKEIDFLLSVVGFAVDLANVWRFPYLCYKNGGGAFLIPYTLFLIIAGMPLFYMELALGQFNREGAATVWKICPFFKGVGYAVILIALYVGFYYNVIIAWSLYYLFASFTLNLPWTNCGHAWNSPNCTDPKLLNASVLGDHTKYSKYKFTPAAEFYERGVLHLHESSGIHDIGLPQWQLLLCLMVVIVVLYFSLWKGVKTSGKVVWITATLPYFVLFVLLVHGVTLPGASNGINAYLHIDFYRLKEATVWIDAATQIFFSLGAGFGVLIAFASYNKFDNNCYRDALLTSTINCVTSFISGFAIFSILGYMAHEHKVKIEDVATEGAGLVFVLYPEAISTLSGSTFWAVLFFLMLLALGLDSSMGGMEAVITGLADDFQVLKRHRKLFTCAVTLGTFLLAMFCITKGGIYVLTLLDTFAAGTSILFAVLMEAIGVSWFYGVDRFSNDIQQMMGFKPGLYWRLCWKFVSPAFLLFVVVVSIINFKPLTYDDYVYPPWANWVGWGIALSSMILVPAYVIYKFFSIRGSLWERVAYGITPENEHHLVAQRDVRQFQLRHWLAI
T2 sequence (P31652 whole entry): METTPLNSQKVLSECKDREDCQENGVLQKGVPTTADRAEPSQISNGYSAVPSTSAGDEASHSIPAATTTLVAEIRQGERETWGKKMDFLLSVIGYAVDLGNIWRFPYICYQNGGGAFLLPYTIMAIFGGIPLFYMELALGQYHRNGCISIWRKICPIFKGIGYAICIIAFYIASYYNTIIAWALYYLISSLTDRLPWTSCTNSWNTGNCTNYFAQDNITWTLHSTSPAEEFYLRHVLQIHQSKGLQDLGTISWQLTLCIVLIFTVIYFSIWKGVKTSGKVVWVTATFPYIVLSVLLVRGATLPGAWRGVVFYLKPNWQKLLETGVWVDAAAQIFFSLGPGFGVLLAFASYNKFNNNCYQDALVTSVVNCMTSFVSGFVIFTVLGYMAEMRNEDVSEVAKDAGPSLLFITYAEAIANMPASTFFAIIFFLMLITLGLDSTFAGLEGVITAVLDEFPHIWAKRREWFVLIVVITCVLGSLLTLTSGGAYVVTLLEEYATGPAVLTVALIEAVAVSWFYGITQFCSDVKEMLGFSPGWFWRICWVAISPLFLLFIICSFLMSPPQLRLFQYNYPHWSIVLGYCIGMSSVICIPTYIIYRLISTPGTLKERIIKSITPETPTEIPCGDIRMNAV
T1 sequence (P31652 whole entry): as above

CCN(CC)C(=O)[C@]1(c2ccccc2)C[C@@H]1CN [F2696, Z-(1R, 2S)-2-(aminomethyl)-N,N-diethyl-1-phenyl cyclopropane carboxamide]
AUC(0-inf) [1, 5]: 1.54 µM·h
Cmax [1, 5]: 212 nM
Tmax [1, 5]: 2.21 h
half-life [1, 5]: 5.58 h
AUC(0-inf) [1, 6]: 1.56 µM·h
Cmax [1, 6]: 179 nM
Tmax [1, 6]: 2.87 h
half-life [1, 6]: 5.75 h
IC50 (3H-serotonin uptake): 600 nM
IC50 (3H-paroxetine binding): 700 nM
Clone G09 (H. sapiens mitochondrion, cytochrome b), regulation factor vs untreated control (primary rat hepatocytes; 100 μM): 2.09
Clone I01 (H. sapiens mitochondrion, cytochrome c oxidase subunit 1), regulation factor vs untreated control (primary rat hepatocytes; 100 μM): 2.05
Clone L01 (H. sapiens divalent cation tolerant protein CUTA mRNA), regulation factor vs untreated control (primary rat hepatocytes; 100 μM): 2.05
Clone M07 (H. sapiens mitochondrion, cytochrome c oxidase subunit 1), regulation factor vs untreated control (primary rat hepatocytes; 100 μM): 2.25
Clone M12 (H. sapiens mRNA; cDNA DKFZp564C1563), regulation factor vs untreated control (primary rat hepatocytes; 100 μM): 0.21
Clone W17 (H. sapiens mitochondrion, hypoxia inducible gene-14), regulation factor vs untreated control (primary rat hepatocytes; 100 μM): 2.96
Clone T08 (H. sapiens mRNA for KIAA1185 protein), regulation factor vs untreated control (primary rat hepatocytes; Sprague-Dawley, rat, 1 μM): 0.50
Clone U04 (H. sapiens translation initiation factor elF-2alpha mRNA), regulation factor vs untreated control (primary rat hepatocytes; Sprague-Dawley, rat, 1 μM): 0.57
Number of down-regulated clones (Down) (primary rat hepatocytes; Sprague-Dawley, rat, 1 μM): 2
Clone AC13 (H. sapiens 7S RNA L gene), regulation factor vs untreated control (primary rat hepatocytes; Sprague-Dawley, rat, 10 μM): 0.22
Clone T08 (H. sapiens mRNA for KIAA1185 protein), regulation factor vs untreated control (primary rat hepatocytes; Sprague-Dawley, rat, 10 μM): 0.22
Clone U04 (H. sapiens translation initiation factor elF-2alpha mRNA), regulation factor vs untreated control (primary rat hepatocytes; Sprague-Dawley, rat, 10 μM): 0.26
Clone X02 (unk), regulation factor vs untreated control (primary rat hepatocytes; Sprague-Dawley, rat, 10 μM): 0.29
Number of down-regulated clones (Down) (primary rat hepatocytes; Sprague-Dawley, rat, 10 μM): 5
Clone A20 (H. sapiens initiation factor elF-5A gene), regulation factor vs untreated control (primary rat hepatocytes; Sprague-Dawley, rat, 100 μM): 0.56
Clone AC13 (H. sapiens 7S RNA L gene), regulation factor vs untreated control (primary rat hepatocytes; Sprague-Dawley, rat, 100 μM): 0.16
Clone C01 (H. sapiens mitochondrion, 16S), regulation factor vs untreated control (primary rat hepatocytes; Sprague-Dawley, rat, 100 μM): 3.20
Clone E11 (H. sapiens chlordecone reductase homolog liver, mRNA), regulation factor vs untreated control (primary rat hepatocytes; Sprague-Dawley, rat, 100 μM): 2.12
Clone I18 (H. sapiens 18S rRNA gene), regulation factor vs untreated control (primary rat hepatocytes; Sprague-Dawley, rat, 100 μM): 2.38
Clone J03 (H. sapiens CLP mRNA), regulation factor vs untreated control (primary rat hepatocytes; Sprague-Dawley, rat, 100 μM): 2.12
Clone L22 (H. sapiens mRNA for Lon protease-like protein), regulation factor vs untreated control (primary rat hepatocytes; Sprague-Dawley, rat, 100 μM): 1.78
Clone M23 (Sequence 21 from U.S. Pat. No. 5,851,764), regulation factor vs untreated control (primary rat hepatocytes; Sprague-Dawley, rat, 100 μM): 1.95
Clone P05 (H. sapiens PAC clone DJ404K21 from Xq23), regulation factor vs untreated control (primary rat hepatocytes; Sprague-Dawley, rat, 100 μM): 1.78
Clone Q24 (H. sapiens 28S ribosomal RNA gene), regulation factor vs untreated control (primary rat hepatocytes; Sprague-Dawley, rat, 100 μM): 1.77
Clone T08 (H. sapiens mRNA for KIAA1185 protein), regulation factor vs untreated control (primary rat hepatocytes; Sprague-Dawley, rat, 100 μM): 0.20
Clone U04 (H. sapiens translation initiation factor elF-2alpha mRNA), regulation factor vs untreated control (primary rat hepatocytes; Sprague-Dawley, rat, 100 μM): 0.19
Clone X02 (unk), regulation factor vs untreated control (primary rat hepatocytes; Sprague-Dawley, rat, 100 μM): 0.20
Clone X06 (H. sapiens Genomic sequence from 9q34), regulation factor vs untreated control (primary rat hepatocytes; Sprague-Dawley, rat, 100 μM): 0.16
Clone X23 (unk), regulation factor vs untreated control (primary rat hepatocytes; Sprague-Dawley, rat, 100 μM): 1.92
Clone Y17 (H. sapiens 28S ribosomal RNA gene), regulation factor vs untreated control (primary rat hepatocytes; Sprague-Dawley, rat, 100 μM): 2.65
Plasma concentrations of the enantiomers compared ([2]; monkey): approximately equivalent
Plasma concentrations of the enantiomers compared ([2]; rat): approximately equivalent
IC50 (3H-norepinephrine uptake [3]): 750 nM

CCN(CC)C(=O)[C@@]1(c2ccccc2)C[C@H]1CN [F2695, Z-(1S,2R)-2-(aminomethyl)-N,N-diethyl-1-phenyl cyclopropane carboxamide]
AUC(0-inf) [1, 5]: 2.87 µM·h
Cmax [1, 5]: 216 nM
Tmax [1, 5]: 3.08 h
half-life [1, 5]: 9.38 h
AUC(0-inf) [1, 6]: 2.9 µM·h
Cmax [1, 6]: 214 nM
Tmax [1, 6]: 3.42 h
half-life [1, 6]: 9.28 h
IC50 (3H-serotonin uptake): 46 nM
IC50 (3H-paroxetine binding): 60 nM
Clone Q11 (unk), regulation factor vs untreated control (primary rat hepatocytes; Sprague-Dawley, rat, 100 μM): 1.81
Number of down-regulated clones (Down) (primary rat hepatocytes; Sprague-Dawley, rat, 100 μM): 1
Number of up-regulated clones (Up) (primary rat hepatocytes; Sprague-Dawley, rat, 100 μM): 1
Plasma concentrations of the enantiomers compared ([2]; monkey): approximately equivalent
Plasma concentrations of the enantiomers compared ([2]; rat): approximately equivalent
IC50 (3H-norepinephrine uptake [3]): 15 nM

CCN(CC)C(=O)C1(c2ccccc2)CC1CN (racemic) [F2207, Z(±)-2-(aminomethyl)-N,N-diethyl-1-phenyl cyclopropane carboxamide]
IC50 (3H-serotonin uptake): 150 nM
IC50 (3H-paroxetine binding): 130 nM
IC50 (3H-norepinephrine uptake [4]): 30 nM
